Consider 7 molecules from publication PMC10108347, “Heterobifunctional Ligase Recruiters Enable pan-Degradation of Inhibitor of Apoptosis Proteins” (Journal of Medicinal Chemistry, 2023).

“Also recorded” adds a separate entry of the source. Where two headings read alike, the source gives them in different places.

For data set [1], the target named is T1, plasma protein (HSA column) (Homo sapiens, UniProt P02768).
T1 construct: purchased
The data set can be described thus: Plasma protein binding estimated by HPLC on a […] HSA column. It is filed as in vitro ADME. The conditions noted are these: CHIRALPAK HSA column (50 × 3 mm, 5 μm), estimated by an HPLC-based method, read-out: PPB (plasma protein binding) (converted). As for the experimental part: Plasma protein binding (% PPB) was estimated by correlating the logarithmic retention times of the analytes on a […] HSA 50 × 3 mm, 5 μm column with the literature-known % PPB values (converted into log K values) of the following drugs: warfarin, ketoprofen, budesonide, nizatidine, indomethacin, acetylsalicylic acid, carbamazepine, piroxicam, nicardipine, and cimetidine (for details, see Valko et al.).[67] The samples were dissolved in MeCN/DMSO 9:1 to achieve a final concentration of 0.5 mg/mL. Mobile phase A was 50 mM ammonium acetate adjusted to pH 7.4 with ammonia solution, while mobile phase B was iPrOH. The flow rate was set to 1.0 mL/min, the UV detector was set to 254 nm, and the column temperature was kept at 30 °C. After injecting 2 μL of the sample, a linear gradient from 100% A to 30% iPrOH in 5.4 min was applied. From 5.4 to 18 min, 30% iPrOH was kept, followed by switching back to 100% A in 1.0 min and a re-equilibration time of 6 min. With the aid of the calibration line (R^2 = 0.96), the log K values of new substances were calculated and converted to their % PPB values.

Data set [2] can be described thus: Log D7.4 measurement by chromatographic (fast-gradient HPLC) method. The settings on record: pH 7.4.
Protocol: The system was calibrated by plotting the retention times of six different drugs (atenolol, metoprolol, labetalol, diltiazem, triphenylene, and permethrin) versus their literature-known log D7.4 in a calibration line (R^2 = 0.99). Subsequently, the mean retention times of the analytes were taken to calculate their log D7.4 values with the aid of the calibration line. At least two independent measurements of each analyte were performed.
For data set [3], the target named is XIAP (Homo sapiens, UniProt P98170). The data set can be described thus: Immunoblotting (western blot) quantification of XIAP levels in MM.1S cells. The settings on record: 16 h; for remaining activity at 0.1 µM: MM1.S. (A western blot detects proteins with antibodies after separation by electrophoresis.)
Protocol: To evaluate the capability of our panel of hetero-PROTACs for E3 ligase degradation, VHL19, VHL30, CRBN, cIAP1, cIAP2, and XIAP levels were quantified by western blot analyses. […] SDS-PAGE was performed, and proteins were then transferred onto PVDF membranes. Blotted membranes were blocked with 5% milk in Tris-buffered saline/Tween20 (TBST). Primary antibodies were diluted in 5% BSA in TBST, and incubations were performed overnight at 4 °C. Secondary HRP-conjugated antibodies diluted in 5% milk were incubated for 1 h at room temperature. Detection of proteins on PVDF was carried out using the WesternBright ECL HRP substrate or the WesternBright Sirius HRP substrate (Advansta, San Jose, USA) and imaged with LAS 4000× (Fujifilm). Membranes were subjected to 10 min incubation with Restore Western Blot Stripping Buffer (Thermo Fisher Scientific, Waltham, USA), followed by TBST washes. After brief re-activation with methanol, the membranes were blocked, and further probing of proteins was carried out.
Quantification of blots was performed using ImageJ software (National Institutes of Health).
Data set [4] concerns IAPs (cIAP1, cIAP2, XIAP). The data set can be described thus: Immunoblotting of IAPs in MM.1S cells, overall degradation profile, time course and washout. It is filed as cell-based. The conditions noted are these: 16 h, western blot, concentration (10 nM to 1 μM). As for the experimental part:
Next, we examined the persistence of IAP degradation in MM.1S cells after a single exposure to 1 μM of 9 and subsequent removal of the compound. […] The reliance on CRL2^VHL was assessed with a neddylation inhibitor MLN4924, which blocks the activity of CRLs (Figure S13A).

Data set [5] has as its target cIAP1 (Homo sapiens, UniProt Q13490). The data set can be described thus: Immunoblotting (western blot) quantification of cIAP1 levels in MM.1S cells. The settings on record: MM1.S, 16 h.
In data set [6] the target is cIAP2 (Homo sapiens, UniProt Q13489). The data set can be described thus: Immunoblotting (western blot) quantification of cIAP2 levels in MM.1S cells. The conditions noted are these: MM1.S, 16 h.
Data set [7] concerns the target VHL30 (Homo sapiens, UniProt P40337). The data set can be described thus: Immunoblotting (western blot) quantification of VHL30 levels in MM.1S cells. The conditions noted are these: MM1.S, 16 h.
Where [8] appears, read: read-out: %remaining protein XIAP, MM.1S cells, 16 h treatment at 0.1 μM, normalized to loading control and DMSO.
Setting [9] is: read-out: %remaining protein cIAP1, MM.1S cells, 16 h treatment at 0.1 μM, normalized to loading control and DMSO.
Where [10] appears, read: read-out: %remaining protein cIAP2, MM.1S cells, 16 h treatment at 0.1 μM, normalized to loading control and DMSO.
[11] abbreviates: read-out: %remaining protein VHL30, MM.1S cells, 16 h treatment at 0.1 μM, normalized to loading control and DMSO.
Where [12] appears, read: read-out: %remaining protein XIAP.
Setting [13] is: read-out: %remaining protein cIAP1.
Where [14] appears, read: read-out: %remaining protein cIAP2.
Setting [15] is: read-out: %remaining protein VHL30.

T1 sequence (P02768 25-609): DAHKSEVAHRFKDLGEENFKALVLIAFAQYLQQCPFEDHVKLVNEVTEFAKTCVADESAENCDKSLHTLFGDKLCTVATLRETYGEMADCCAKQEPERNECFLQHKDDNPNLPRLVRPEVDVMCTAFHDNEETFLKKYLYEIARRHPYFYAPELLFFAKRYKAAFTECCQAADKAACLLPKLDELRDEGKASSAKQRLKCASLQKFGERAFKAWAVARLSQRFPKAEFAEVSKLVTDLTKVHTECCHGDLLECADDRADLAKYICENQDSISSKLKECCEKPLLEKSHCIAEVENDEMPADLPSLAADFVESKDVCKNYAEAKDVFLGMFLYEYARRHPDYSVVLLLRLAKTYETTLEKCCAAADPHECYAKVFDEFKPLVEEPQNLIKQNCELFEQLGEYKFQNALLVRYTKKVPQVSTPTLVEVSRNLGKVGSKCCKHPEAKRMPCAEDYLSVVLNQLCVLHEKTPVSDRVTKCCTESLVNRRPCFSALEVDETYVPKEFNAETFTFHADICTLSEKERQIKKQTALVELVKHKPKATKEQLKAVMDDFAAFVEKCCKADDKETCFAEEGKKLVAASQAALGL
Chain of VHL30 (P40337 whole entry): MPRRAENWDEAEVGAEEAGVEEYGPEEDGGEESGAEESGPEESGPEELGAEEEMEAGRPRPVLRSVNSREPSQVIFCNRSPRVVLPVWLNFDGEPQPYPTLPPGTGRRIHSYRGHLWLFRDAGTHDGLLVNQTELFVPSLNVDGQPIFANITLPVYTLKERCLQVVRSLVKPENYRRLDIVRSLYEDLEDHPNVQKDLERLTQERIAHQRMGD
Chain of XIAP (P98170 whole entry): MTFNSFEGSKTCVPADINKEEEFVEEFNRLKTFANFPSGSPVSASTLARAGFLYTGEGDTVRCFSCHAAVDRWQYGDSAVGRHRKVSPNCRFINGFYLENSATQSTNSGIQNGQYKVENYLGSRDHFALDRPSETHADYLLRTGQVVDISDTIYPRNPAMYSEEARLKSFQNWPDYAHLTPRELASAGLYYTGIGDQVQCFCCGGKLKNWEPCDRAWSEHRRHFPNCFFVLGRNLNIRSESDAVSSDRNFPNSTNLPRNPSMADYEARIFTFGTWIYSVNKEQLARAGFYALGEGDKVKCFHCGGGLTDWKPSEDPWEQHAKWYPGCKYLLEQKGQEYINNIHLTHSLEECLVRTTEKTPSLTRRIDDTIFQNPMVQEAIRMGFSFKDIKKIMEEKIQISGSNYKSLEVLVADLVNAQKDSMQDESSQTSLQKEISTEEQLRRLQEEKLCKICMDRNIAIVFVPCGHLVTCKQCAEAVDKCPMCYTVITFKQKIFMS
Chain of cIAP1 (Q13490 whole entry): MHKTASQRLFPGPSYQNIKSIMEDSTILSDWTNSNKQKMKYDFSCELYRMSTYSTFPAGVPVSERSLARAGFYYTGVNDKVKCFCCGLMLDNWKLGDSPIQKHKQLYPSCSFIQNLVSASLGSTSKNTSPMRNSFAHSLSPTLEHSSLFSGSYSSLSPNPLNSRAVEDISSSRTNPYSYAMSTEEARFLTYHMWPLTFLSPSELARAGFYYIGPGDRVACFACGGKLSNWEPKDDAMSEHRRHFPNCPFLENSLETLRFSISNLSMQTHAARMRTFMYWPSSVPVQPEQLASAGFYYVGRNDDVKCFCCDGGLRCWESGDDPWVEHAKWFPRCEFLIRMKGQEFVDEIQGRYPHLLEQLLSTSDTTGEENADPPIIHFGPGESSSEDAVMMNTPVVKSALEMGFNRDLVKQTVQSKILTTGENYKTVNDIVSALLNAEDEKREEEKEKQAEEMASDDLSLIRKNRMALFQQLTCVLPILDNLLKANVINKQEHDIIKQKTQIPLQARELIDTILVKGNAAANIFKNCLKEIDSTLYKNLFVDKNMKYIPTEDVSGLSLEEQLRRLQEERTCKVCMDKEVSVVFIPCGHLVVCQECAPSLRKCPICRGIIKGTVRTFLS
Chain of cIAP2 (Q13489 whole entry): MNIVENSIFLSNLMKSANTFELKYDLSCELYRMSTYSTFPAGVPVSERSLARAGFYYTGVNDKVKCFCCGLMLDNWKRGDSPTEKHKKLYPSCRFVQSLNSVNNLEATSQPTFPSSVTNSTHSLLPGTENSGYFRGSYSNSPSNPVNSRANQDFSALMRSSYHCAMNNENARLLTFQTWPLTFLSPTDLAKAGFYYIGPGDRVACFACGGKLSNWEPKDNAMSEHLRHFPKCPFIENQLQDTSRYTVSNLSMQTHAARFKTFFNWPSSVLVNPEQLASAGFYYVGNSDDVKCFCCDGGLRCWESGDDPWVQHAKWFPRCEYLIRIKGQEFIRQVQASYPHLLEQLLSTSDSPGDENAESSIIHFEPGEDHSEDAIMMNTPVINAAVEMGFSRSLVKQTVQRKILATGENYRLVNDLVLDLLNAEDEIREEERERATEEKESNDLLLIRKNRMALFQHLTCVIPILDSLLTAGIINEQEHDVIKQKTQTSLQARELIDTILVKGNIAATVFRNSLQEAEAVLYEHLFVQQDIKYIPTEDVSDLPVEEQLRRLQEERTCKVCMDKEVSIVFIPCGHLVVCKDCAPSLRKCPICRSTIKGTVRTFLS

Regarding `CN[C@@H](C)C(=O)N[C@H](C(=O)N1CCC[C@H]1c1nc(C(=O)c2ccc(F)cc2)cs1)C1CCCCC1` [LCL161, reference compound], the fraction unbound at 0.5 mg/mL in data set [1] is 0.12. For the same molecule, the chromatographic logD (commonly lipophilicity estimated from chromatographic retention) in data set [2] is 3.3. Also, the “XIAP degradation (in words)” value in data set [3] (MM.1S cells, western blot, 0.1 or 1 μM) is on record as “failed to degrade XIAP”.
With `CC(=O)N(C)[C@@H](C)C(=O)N[C@H](C(=O)N1C[C@@H](Oc2cccc(OCCCCC(=O)N[C@H](C(=O)N3C[C@H](O)C[C@H]3C(=O)N[C@@H](C)c3ccc(-c4scnc4C)cc3)C(C)(C)C)c2)C[C@H]1C(=O)N[C@@H]1CCCc2ccccc21)C1CCCCC1` [PROTAC 10c, (2S,4S)-1-((S)-2-Cyclohexyl-2-((S)-2-(N-methylacetamido)propanamido)acetyl)-4-(3-((5-(((S)-1-((2S,4R)-4-hydroxy-2-(((S)-1-(4-(4-methylthiazol-5-yl)phenyl)ethyl)carbamoyl)pyrrolidin-1-yl)-3,3-dimethyl-1-oxobutan-2-yl)amino)-5-oxopentyl)oxy)phenoxy)-N-((R)-1,2,3,4-tetrahydronaphthalen-1-yl)pyrrolidine-2-carboxamide], the “IAP degradation profile (in words)” value in data set [4] was “inactivated PROTACs”. The remaining activity at 0.1 µM in data set [3] (setting [8]) was 88%; in data set [5] (setting [9]), 94%; in data set [6] (setting [10]), over 99%; in data set [7] (setting [11]) it was over 99%.
In the case of `Cc1ncsc1-c1ccc([C@H](C)NC(=O)[C@@H]2C[C@@H](O)CN2C(=O)[C@@H](NC(=O)CCCCOc2cccc(O[C@H]3C[C@@H](C(=O)N[C@@H]4CCCc5ccccc54)N(C(=O)[C@@H](NC(=O)[C@H](C)N(C)C(=O)OC(C)(C)C)C4CCCCC4)C3)c2)C(C)(C)C)cc1` [PROTAC 10d, tert-Butyl ((S)-1-(((S)-1-Cyclohexyl-2-((2S,4S)-4-(3-((5-(((S)-1-((2S,4R)-4-hydroxy-2-(((S)-1-(4-(4-methylthiazol-5-yl)phenyl)ethyl)carbamoyl)pyrrolidin-1-yl)-3,3-dimethyl-1-oxobutan-2-yl)amino)-5-oxopentyl)oxy)phenoxy)-2-(((R)-1,2,3,4-tetrahydronaphthalen-1-yl)carbamoyl)pyrrolidin-1-yl)-2-oxoethyl)amino)-1-oxopropan-2-yl)(methyl)carbamate], the “IAP degradation profile (in words)” value in data set [4] is reported as “inactivated PROTACs”. Moreover, the remaining activity at 0.1 µM was 87% in data set [3] (setting [8]), 73% in data set [5] (setting [9]), 88% in data set [6] (setting [10]) and over 99% in data set [7] (setting [11]).
As for `CN[C@@H](C)C(=O)N[C@H](C(=O)N1C[C@@H](Oc2cccc(OCCCCCOc3cc(-c4scnc4C)ccc3CNC(=O)[C@@H]3C[C@@H](O)CN3C(=O)[C@H](C(C)C)N3Cc4ccccc4C3=O)c2)C[C@H]1C(=O)N[C@@H]1CCCc2ccccc21)C1CCCCC1` [PROTAC 12, (2S,4S)-1-((S)-2-Cyclohexyl-2-((S)-2-(methylamino)propanamido)acetyl)-4-(3-((5-(2-(((2S,4R)-4-hydroxy-1-((S)-3-methyl-2-(1-oxoisoindolin-2-yl)butanoyl)pyrrolidine-2-carboxamido)methyl)-5-(4-methylthiazol-5-yl)phenoxy)pentyl)oxy)phenoxy)-N-((R)-1,2,3,4-tetrahydronaphthalen-1-yl)pyrrolidine-2-carboxamide], the fraction unbound at 0.5 mg/mL in data set [1] was 0.04. For the same molecule, the chromatographic logD in data set [2] turned out to be 4. Moreover, the remaining activity at 0.1 µM in data set [3] (setting [12]) amounted to 5%; in data set [5] (setting [13]), 4%; in data set [6] (setting [14]), 29%; in data set [7] (setting [15]), 55%.
As to `CN[C@@H](C)C(=O)N[C@H](C(=O)N1C[C@@H](Oc2cccc(OCCCCCCCCOc3cc(-c4scnc4C)ccc3CNC(=O)[C@@H]3C[C@@H](O)CN3C(=O)[C@H](C(C)C)N3Cc4ccccc4C3=O)c2)C[C@H]1C(=O)N[C@@H]1CCCc2ccccc21)C1CCCCC1` [PROTAC 13, (2S,4S)-1-((S)-2-Cyclohexyl-2-((S)-2-(methylamino)propanamido)acetyl)-4-(3-((8-(2-(((2S,4R)-4-hydroxy-1-((S)-3-methyl-2-(1-oxoisoindolin-2-yl)butanoyl)pyrrolidine-2-carboxamido)methyl)-5-(4-methylthiazol-5-yl)phenoxy)octyl)oxy)phenoxy)-N-((R)-1,2,3,4-tetrahydronaphthalen-1-yl)pyrrolidine-2-carboxamide], the fraction unbound at 0.5 mg/mL in data set [1] was 0.03. Also, the chromatographic logD in data set [2] was found to be 4.8. The remaining activity at 0.1 µM in data set [3] (setting [12]) came to 5%; in data set [5] (setting [13]), 3%; in data set [6] (setting [14]), 15%; in data set [7] (setting [15]), 53%.
Regarding `CN[C@@H](C)C(=O)N[C@H](C(=O)N1C[C@@H](Oc2cccc(OCCCCOCCCCOc3cc(-c4scnc4C)ccc3CNC(=O)[C@@H]3C[C@@H](O)CN3C(=O)[C@H](C(C)C)N3Cc4ccccc4C3=O)c2)C[C@H]1C(=O)N[C@@H]1CCCc2ccccc21)C1CCCCC1` [PROTAC 14, (2S,4S)-1-((S)-2-Cyclohexyl-2-((S)-2-(methylamino)propanamido)acetyl)-4-(3-(4-(4-(2-(((2S,4R)-4-hydroxy-1-((S)-3-methyl-2-(1-oxoisoindolin-2-yl)butanoyl)pyrrolidine-2-carboxamido)methyl)-5-(4-methylthiazol-5-yl)phenoxy)butoxy)butoxy)phenoxy)-N-((R)-1,2,3,4-tetrahydronaphthalen-1-yl)pyrrolidine-2-carboxamide], the fraction unbound at 0.5 mg/mL in data set [1] was 0.04. Further, the chromatographic logD in data set [2] is 4.2. Moreover, the remaining activity at 0.1 µM in data set [3] (setting [12]) was 3%; in data set [5] (setting [13]), 2%; in data set [6] (setting [14]) it was 15%; in data set [7] (setting [15]), 39%.
For `CN[C@@H](C)C(=O)N[C@H](C(=O)N1C[C@@H](Oc2cccc(OCCCCCCOCCCCCCOCCCCCCOc3cc(-c4scnc4C)ccc3CNC(=O)[C@@H]3C[C@@H](O)CN3C(=O)[C@H](C(C)C)N3Cc4ccccc4C3=O)c2)C[C@H]1C(=O)N[C@@H]1CCCc2ccccc21)C1CCCCC1` [PROTAC 19, (2S,4S)-1-((S)-2-Cyclohexyl-2-((S)-2-(methylamino)propanamido)acetyl)-4-(3-((6-((6-((6-(2-(((2S,4R)-4-hydroxy-1-((S)-3-methyl-2-(1-oxoisoindolin-2-yl)butanoyl)pyrrolidine-2-carboxamido)methyl)-5-(4-methylthiazol-5-yl)phenoxy)hexyl)oxy)hexyl)oxy)hexyl)oxy)phenoxy)-N-((R)-1,2,3,4-tetrahydronaphthalen-1-yl)pyrrolidine-2-carboxamide], the “IAP degradation profile (in words)” value in data set [4] was “dual cIAP1/XIAP degradation at 0.1 μM concentration; also recorded: pan-IAP degradation at 1 μM; also recorded: no degradation at 10 nM”. In addition, the chromatographic logD in data set [2] is 6.3. The remaining activity at 0.1 µM is 34% in data set [3] (setting [12]), 27% in data set [5] (setting [13]), 84% in data set [6] (setting [14]) and 95% in data set [7] (setting [15]).
